We go through 50 compounds from BindingDB's records for doi:10.7270/Q2MP51PC (Pcmd, 2008).

In the experiment the target is T1, Complement C1s subcomponent (Homo sapiens, UniProt P09871).
T1 sequence (P09871 whole entry): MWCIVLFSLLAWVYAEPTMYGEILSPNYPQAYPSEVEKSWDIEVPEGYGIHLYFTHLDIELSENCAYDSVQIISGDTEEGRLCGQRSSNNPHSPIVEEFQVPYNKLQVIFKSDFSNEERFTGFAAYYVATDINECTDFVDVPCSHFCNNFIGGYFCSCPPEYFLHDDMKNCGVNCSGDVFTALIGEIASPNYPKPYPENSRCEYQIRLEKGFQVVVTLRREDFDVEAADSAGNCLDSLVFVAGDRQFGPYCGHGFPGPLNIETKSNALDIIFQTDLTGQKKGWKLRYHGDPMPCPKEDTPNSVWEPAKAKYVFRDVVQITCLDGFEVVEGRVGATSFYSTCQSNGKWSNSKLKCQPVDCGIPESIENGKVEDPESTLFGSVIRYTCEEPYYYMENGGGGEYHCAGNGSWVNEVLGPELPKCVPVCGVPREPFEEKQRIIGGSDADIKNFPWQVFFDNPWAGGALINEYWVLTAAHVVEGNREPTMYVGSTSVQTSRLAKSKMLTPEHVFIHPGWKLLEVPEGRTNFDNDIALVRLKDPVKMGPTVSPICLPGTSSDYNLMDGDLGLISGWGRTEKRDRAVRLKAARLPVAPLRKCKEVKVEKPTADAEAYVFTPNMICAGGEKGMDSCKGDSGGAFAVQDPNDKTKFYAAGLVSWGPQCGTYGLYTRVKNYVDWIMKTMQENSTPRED
Nature of the experiment: concentration-response of complement C1s inhibitors – biochemical, dose response (AID 787).

Turning to `COc1cc(-c2nnc(SCC(=O)c3cc(C)n(CC4CCCO4)c3C)o2)cc(OC)c1OC` (stereo not given) [1-[2,5-dimethyl-1-(2-oxolanylmethyl)-3-pyrrolyl]-2-[[5-(3,4,5-trimethoxyphenyl)-1,3,4-oxadiazol-2-yl]thio]ethanone], the IC50 – broadly, the concentration that inhibits the measured activity by half – was more than 50 µM. For the compound `O=C(COC(=O)c1cnccn1)c1ccc(OC(=O)c2ccccc2)cc1` [2-pyrazinecarboxylic acid [2-(4-benzoyloxyphenyl)-2-oxoethyl] ester], the IC50 is more than 50 µM. The value for `CCc1nn(C(C)C(=O)NCCN2CCN(c3cccc(C)c3C)CC2)c(=O)c2cc3occc3n12` (stereo not given) [SMR000029605] was more than 50 µM; that for `CCCCN1C(=O)/C(=C2\SC(N3CCCCC3)=NC2=O)c2ccccc21` [MLS000111979] was more than 50 µM; that for `O=C(NC1=NCCS1)c1cccc(S(=O)(=O)N2CCCCC2)c1` [3-piperidinosulfonyl-N-(2-thiazolin-2-yl)benzamide] was more than 50 µM.

Regarding `O=C(O)[C@@H](c1ccccc1)N1Cc2ccccc2C1=O`, the IC50 is more than 50 µM. `CCOC(=O)COc1ccc(S(=O)(=O)NCCC2=CCCCC2)cc1` [2-[4-[2-(1-cyclohexenyl)ethylsulfamoyl]phenoxy]acetic acid ethyl ester] showed an IC50 of more than 50 µM.

As for `COc1ccc(Cl)cc1NC(=O)CCN1CCN(c2ccccc2C)CC1` [MLS000075926], the IC50 was more than 50 µM. Take `Cc1nc(C)c(C(=O)Nc2cccc(C)c2C)o1` [MLS000118537]: the IC50 is more than 50 µM. Turning to `Cc1ccc(-c2noc(CN(C(=O)C34CC5CC(CC(C5)C3)C4)C(C)C)n2)cc1` [N-[[3-(4-methylphenyl)-1,2,4-oxadiazol-5-yl]methyl]-N-propan-2-yl-1-adamantanecarboxamide], the IC50 is more than 50 µM.

Turning to `Cc1cc(=O)[nH]c(SCC(=O)c2ccc(C(C)C)cc2)n1` [MLS000089861], the IC50 was more than 50 µM.

For `O=C(Nc1cc(Cl)ccc1N1CCOCC1)c1cnccn1` [MLS000076142], the IC50 was more than 50 µM. The value for `COc1ccc(C(=O)n2nc(-c3ccco3)nc2SC)cc1OC` [(3,4-dimethoxyphenyl)-[3-(2-furanyl)-5-(methylthio)-1,2,4-triazol-1-yl]methanone] was 2.37 µM. In turn, `Cc1nnc(SC(=O)N2c3ccccc3Sc3ccccc32)s1` [10-phenothiazinecarbothioic acid S-(5-methyl-1,3,4-thiadiazol-2-yl) ester] displayed an IC50 of more than 50 µM. In the case of `Cc1ccc(C(=O)Nc2nccs2)cc1S(=O)(=O)N1CCCCC1` [4-methyl-3-(1-piperidinylsulfonyl)-N-(2-thiazolyl)benzamide], the half-maximal inhibitory concentration (IC50) is more than 50 µM. With `O=C1CCCC2=NC(Nc3nc4ccccc4o3)=NC3(CCCCC3)C12` (stereo not given) [2-(1,3-benzoxazol-2-ylamino)-5-spiro[1,6,7,8-tetrahydroquinazoline-4,1'-cyclohexane]one], the IC50 is more than 50 µM.

Consider `CN(C)c1ccc(C(=O)c2ccccc2C(=O)O)c(O)c1` [2-(4-Dimethylamino-2-hydroxy-benzoyl)-benzoic acid], for which the IC50 was more than 50 µM.

With `O=C(O)CCCC(=O)Nc1ccccc1C(=O)O` [2-(4-carboxybutanoylamino)benzoic acid], the IC50 is more than 50 µM. Compound `O=C(Nc1ccccn1)c1cccc(S(=O)(=O)N2CCCCC2)c1` [3-(1-piperidinylsulfonyl)-N-(2-pyridinyl)benzamide] registered an IC50 of more than 50 µM. Turning to `COc1cc(OC)cc(C(=O)Nc2ncc3c(n2)CC(C)CC3=O)c1` (stereo not given) [3,5-dimethoxy-N-(7-methyl-5-oxidanylidene-7,8-dihydro-6H-quinazolin-2-yl)benzamide], the half-maximal inhibitory concentration (IC50) is more than 50 µM. Regarding `Cc1nc2scc(-c3cccs3)c2c(=O)o1` [2-methyl-5-(2-thienyl)thieno[2,3-d][1,3]oxazin-4-one], the IC50 was more than 50 µM.

`COc1ccccc1/N=C/c1nc(-c2ccccc2)oc1OC(C)=O` [SMR000039734] returned an IC50 of more than 50 µM. The figure for `CCCc1nc2ccccc2c(=O)n1-c1c(C)n(C)n(-c2ccccc2)c1=O` [3-(1,5-dimethyl-3-oxo-2-phenyl-4-pyrazolyl)-2-propyl-4-quinazolinone] is more than 50 µM; for `Cc1coc2c(C)c3oc(=O)c4c(c3cc12)CCCC4` [7,10-dimethyl-1,2,3,4-tetrahydro-[1]benzofuro[6,5-c]isochromen-5-one] it is more than 50 µM; for `Cc1cc(NS(=O)(=O)c2ccc(NC(=O)COc3ccccc3C(C)C)cc2)no1` [2-(2-isopropylphenoxy)-N-[4-[(5-methylisoxazol-3-yl)sulfamoyl]phenyl]acetamide] it is more than 50 µM. In turn, `CC(=O)N1CCN(C(=O)c2cccc(S(=O)(=O)Nc3ccc(C)cc3)c2)CC1` [3-(4-acetylpiperazine-1-carbonyl)-N-(4-methylphenyl)benzenesulfonamide] displayed an IC50 of more than 50 µM. On to `O=C(c1csc2c1CCCC2)n1cccn1` [1-(4,5,6,7-tetrahydro-1-benzothien-3-ylcarbonyl)-1H-pyrazole], for which the IC50 is 3.83 µM. `O=C(Nc1cccc(F)c1)c1c(F)c(F)c(F)c(F)c1F` [2,3,4,5,6-pentafluoro-N-(3-fluorophenyl)benzamide] came in with an IC50 of more than 50 µM. The value for `CCOc1ccc(NC(=O)CN2CCN(CC(=O)Nc3ccc4c(c3)OCO4)CC2)cc1` [2-[4-[2-(1,3-benzodioxol-5-ylamino)-2-keto-ethyl]piperazino]-N-p-phenetyl-acetamide] was more than 50 µM; that for `Cc1cccc(COc2ccc(C(=O)C3C(=O)C(=O)N(CCN(C)C)C3c3ccncc3)cc2)c1` (stereo not given) [(4E)-1-[2-(dimethylamino)ethyl]-4-[[4-[(3-methylphenyl)methoxy]phenyl]-oxidanyl-methylidene]-5-pyridin-4-yl-pyrrolidine-2,3-dione] was more than 50 µM. Turning to `COc1ccc(C(=O)OCn2nnc3ccccc3c2=O)cc1OC` [(4-oxidanylidene-1,2,3-benzotriazin-3-yl)methyl 3,4-dimethoxybenzoate], the IC50 was more than 50 µM. Consider `CCc1ccc(-c2cn(-c3nc(C)cc(C)n3)c(=N)o2)cc1` [3-(4,6-dimethyl-2-pyrimidinyl)-5-(4-ethylphenyl)-2-oxazolimine], for which the IC50 was more than 50 µM. For the compound `Cc1csc(NC(=O)c2ccco2)n1` [MLS000108918], the IC50 is more than 50 µM. The compound `Cc1csc(NC(=O)c2ccc(C)c(S(=O)(=O)N3CCCCC3)c2)n1` [4-methyl-N-(4-methyl-1,3-thiazol-2-yl)-3-piperidin-1-ylsulfonyl-benzamide] yielded an IC50 of more than 50 µM. The value for `CCOC(=O)c1sc(NC(=O)c2cc(S(=O)(=O)N3CCOCC3)ccc2C)nc1C` [4-methyl-2-[(2-methyl-5-morpholinosulfonyl-benzoyl)amino]thiazole-5-carboxylic acid ethyl ester] was more than 50 µM; that for `CC1CNC(=Nc2cccc3ccccc23)S1` (stereo not given) [(5-methyl-2-thiazolin-2-yl)-(1-naphthyl)amine] was more than 50 µM. The value for `CCC(C)N1CC23C=CC(O2)C(C(=O)OCc2ccccc2)C3C1=O` (stereo not given) [3-sec-Butyl-4-oxo-10-oxa-3-aza-tricyclo[5.2.1.0*1,5*]dec-8-ene-6-carboxylic acid benzyl ester] was more than 50 µM; that for `CN(CCNC(=O)Cn1c(=O)sc2ccccc21)Cc1ccccc1` [MLS000116175] was more than 50 µM. In the case of `COc1ccc(NC(=O)c2cccs2)cc1OC` [MLS000058874], the IC50 is more than 50 µM.

Compound `CCOC(=O)COc1nc(OC)nc(N2CCOCC2)n1` [2-[(4-methoxy-6-morpholino-s-triazin-2-yl)oxy]acetic acid ethyl ester] displayed an IC50 of more than 50 µM. The compound `CSc1nc(-c2ccco2)nn1C(=O)c1cccs1` [[3-(furan-2-yl)-5-methylsulfanyl-1,2,4-triazol-1-yl]-thiophen-2-ylmethanone] displayed an IC50 of 0.88 µM. Compound `O=C(Nc1ccc2oc(=O)ccc2c1)c1cccnc1` [MLS000075075] returned an IC50 of more than 50 µM. `CCCCn1c(-c2cc(Cl)ccc2OC)n[nH]c1=S` [4-butyl-3-(5-chloro-2-methoxyphenyl)-1H-1,2,4-triazole-5-thione]: the IC50 is more than 50 µM. Regarding `COc1ccccc1Nc1nc(-c2cccs2)cs1` [(2-methoxyphenyl)-[4-(2-thienyl)thiazol-2-yl]amine], the half-maximal inhibitory concentration (IC50) is more than 50 µM. As to `CCOC(=O)c1nnn(-c2nonc2N)c1CN(C)C1CCCCC1` [1-(4-amino-1,2,5-oxadiazol-3-yl)-5-[[cyclohexyl(methyl)amino]methyl]-4-triazolecarboxylic acid ethyl ester], the IC50 is more than 50 µM. The value for `CC(C)CN(CC(C)C)S(=O)(=O)N1CCC(C(=O)NCc2ccc(F)cc2)CC1` [1-(diisobutylsulfamoyl)-N-(4-fluorobenzyl)isonipecotamide] was more than 50 µM. The value for `Cc1ccc(S(=O)(=O)n2nc(OC(=O)c3cccs3)cc2N)cc1` was more than 50 µM; that for `COc1ccc(CC(=O)Nc2cccc(-c3nnc(-c4cccc(C)c4)o3)c2)cc1OC` [2-(3,4-dimethoxyphenyl)-N-[3-[5-(3-methylphenyl)-1,3,4-oxadiazol-2-yl]phenyl]acetamide] was more than 50 µM. Take `Cc1csc(NC(=O)c2cccc(S(=O)(=O)N3CCCCC3)c2)n1` [MLS000058185]: the IC50 is more than 50 µM. For the compound `Cc1ccc(-n2c(SCC(=O)N3CCCC3)nc3c(c2=O)SCC3)cc1` [2-[(2-keto-2-pyrrolidino-ethyl)thio]-3-(p-tolyl)-6,7-dihydrothieno[3,2-d]pyrimidin-4-one], the IC50 is more than 50 µM.
